Measurements published in patent US5521200A, “2-oxo-pyrrolo[1,2-A]benzimidazole-3-carboxyl derivatives useful in treating central nervous system disorders” (priority 1994, dated 1996).

Assays:
[1] = target: benzodiazepine site of the GABA-A receptor; assay: Benzodiazepine Receptor Binding Assay (inhibition of 3H-flunitrazepam binding); settings: ca. 3 nM 3H-flunitrazepam, 10-20 min at 25° C., membranes; over 10,000 = not active
[2] = tested on: metrazol-induced convulsions in mice; assay: Suppression of Metrazol-Induced Convulsions; format: in vivo, mouse (male CD1 mice); settings: Mus musculus, ip, sc metrazol CD90, block of clonic convulsions, greater than 30 = active dose not determined
[3] = tested on: adult male rat (conflict behavior suppressed by punishment); assay: Suppression of anxiety in the adult male rat (Conflict, Vogel); format: in vivo; settings: ip, minimum effective dose, greater than 10 = active dose not determined, read-out: Conflict MED
Excerpt: The experiment was run the next day.

Compound | IC50 [1] | ED50 [2] | minimal effective dose [3]
O=C1CN2C(=C1C(=O)Nc1ccncc1)Nc1ccccc12 [CP #1, N-(4-Pyridyl)-1,2-dihydro-4H-pyrrolo[1,2-a]benzimidazole-3-carboxamide-2(1H)-one] | 7.22 µM | > 10 mg/kg | > 10 mg/kg
CN(C)c1ccc(NC(=O)C2=C3Nc4ccccc4N3CC2=O)cc1 [CP #2, N-(4-Dimethylaminophenyl)-1,2-dihydro-2-oxo-4H-pyrrolo[1,2-a]benzimidazole-3-carboxamide] | 1.74 µM | > 30 mg/kg | > 10 mg/kg
CN1C2=C(C(=O)Nc3c(F)cccc3F)C(=O)C(C)(C)N2c2ccccc21 [CP #6, N-(2,6-Difluorophenyl)-1,2-dihydro-1,1,4-trimethyl-4H-pyrrolo[1,2-a]benzimidazole-3-carbozamide-2(1H) one] | > 10 µM | 1 to 10 mg/kg | > 10 mg/kg
CCN1C2=C(C(=O)Nc3c(F)cccc3F)C(=O)CN2c2ccccc21 [CP #7, N-(2,6-Difluorophenyl)-1,2-dihydro-4-ethyl-4H-pyrrolo[1,2-a]benzimidazole-3-carboxamide-2(1H)-one] | > 10 µM | > 10 mg/kg | > 10 mg/kg

Second part, led by results:

IC50 [1] | Compound | ED50 [2] | minimal effective dose [3]
> 10 µM | O=C1CN2C(=C1C(=O)Nc1cc(F)ccc1F)Nc1ccccc12 [CP #3, N-(2,5-Difluorophenyl)-1,2-dihydro-2-oxo-4H-pyrrolo[1,2-a]benzimidazole-3-carboxamide] |  | > 10 mg/kg
0.0801 µM | O=C1CN2C(=C1C(=O)Nc1c(F)cccc1F)Nc1ccccc12 [CP #5, N-(2,6-Difluorophenyl)-1,2-dihydro-2-oxo-4H-pyrrolo[1,2-a]benzimidazole-3-carboxamide] | 6 mg/kg | < 10 mg/kg
> 10 µM | O=C1CN2C(=C1C(=O)Nc1ccc(F)cc1F)Nc1ccccc12 [CP #8, N-(2,4-Difluorophenyl)-1,2-dihydro-2-oxo-4H-pyrrolo[1,2-a]benzimidazole-3-carboxamide] |  | > 10 mg/kg
